These results are taken from patent publication US11634452B2, “Compounds for treating neurodegenerative disorders” (ETHNODYNE, priority 2017, dated 2023).

The experiment deals with primary cocultures of central neurons and oligodendrocytes. As to the kind of experiment: In vitro MS (myelination) model. The experiment is classed as cell-based, rat. As for the experimental part:
A reproducible in vitro myelination model based on primary cocultures of central neurons and oligodendrocytes culturing in 96-well plate is used and adapted to high throughput screening.
Neurons/oligodendrocytes were cultured as previously described by Charles et al., 2000. PNAS 97 7585-7590.
Briefly, pregnant Wistar female rats of 17 days gestation were killed by cervical dislocation (Janvier Labs, France) and the foetuses removed from the uterus. The forebrains were removed and placed in ice-cold medium of Leibovitz (L15; Pan Biotech, Germany) containing 2% of Penicillin-Streptomycin (Batch 1451013, PanBiotech) and 1% of bovine serum albumin (BSA) (Batch K180713, Pan Biotech). Cortexes were dissociated by trypsinisation for 20 min at 37° C., with Trypsin EDTA 1× (Batch 7310713, PanBiotech). The reaction was stopped by the addition of Dulbecco's modified Eagle's medium (DMEM) (Batch 9710913, PanBiotech) containing DNAase I grade II at 0.1 mg/mL (Batch H131108, PanBiotech) and 10% of foetal calf serum (Batch 41Q7218K, Invitrogen, France). Cells were then mechanically dissociated by 3 passages through a 10 mL pipette. Cells were centrifuged at 180×g for 10 min at 4° C. temperature on a layer of BSA (3.5%) in L15 medium. The supernatant was discarded and cells of the pellet were re-suspended in DMEM containing 10% of FCS. […] The supernatant was discarded and cells of pellet were re-suspended in a culture medium consisting of Neurobasal (Batch 1625353, Invitrogen) supplemented with 2% of B27 (Batch 1618508, Invitrogen), 2 mM of L-glutamine (Batch 6620314, PanBiotech), 2% of PS solution, 1% of foetal calf serum (FCS) and 10 ng/mL of platelet-derived growth factor (PDGF-AA) (Batch H131205, PanBiotech).
The plates were maintained at 37° C. in a humidified incubator, in an atmosphere of air (95%)-CO2 (5%). Half of the medium was changed every 2 days with fresh medium in presence or absence of compound.
Plate 1 for Day 12 (A2B5) and plate 2 for Day 18 (MAG evaluation) • Control (vehicle) • Compound CR777 of example 1 (1 pmol/L) • Compound CR777 of example 1 (10 pmol/L) • Compound CR777 of example 1 (100 pmol/L) • Compound CR777 of example 1 (1 nmol/L) • Compound CR777 of example 1 (10 nmol/L) • Compound CR777 of example 1 (100 nmol/L) • Compound CR777 of example 1 (1 μmol/L) • Compound CR777 of example 1 (10 μmol/L)
The cells were then permeabilized and non-specific sites were blocked with a solution of phosphate buffered saline (Batch 3010914, PanBiotech) containing 0.1% of saponin (Batch BCBJ8417V, Sigma) and 1% FCS for 15 min at room temperature.
On day 12, cells were incubated with Monoclonal Anti-A2B5 conjugated Alexa Fluor® 488 produced in mouse (Batch 2281669, Millipore, France) at dilution of 1/200 in PBS containing 1% FCS, 0.1% saponin, and with anti-MAP-2 antibody produced in chicken (Batch GR180541-3, AbCam; United Kingdom) at dilution of 1/1000 in PBS containing 1% FCS, 0.1% saponin for 2 h at room temperature. […]
The immunolabeled cultures were automatically examined with ImageXpress (Molecular Devices) equipped with a LED at ×20 magnification. […] Number of A2B5 positive cells and number of MAG positive cells were automatically analyzed by using Custom module editor (Molecular Devices). […] All values were expressed as mean+/−SEM (s.e.mean) of the 6 wells. […]

Where [1] appears, read: 18 days of treatment, significant from 1 pmol/L up to 1 μmol/L, not at 10 μM.

For `CC1=C(CO)C(=O)O[C@@H]([C@@H](C)[C@H]2CCC3C4C[C@H](SC[C@H](NC(=O)CC[C@@H](N)C(=O)O)C(=O)NCC(=O)O)[C@]5(O)[C@@H](O)C=CC(=O)[C@]5(C)C4CC[C@@]32C)C1` (some centres unmarked) [CR777], where the note is “12 days treatment, 1 pmol/L to 10 μmol/L”, the “OPC (precursor cells of oligodendrocytes) number, A2B5 positive cells” value is “did not show any significant increase”. In addition, the “total number of OPCs” value (12 days treatment, at the highest doses) was “decrease of the total number of OPCs”. Further, the “maximal effect on MAG, increase vs control” value (18 days of treatment, all doses) was ~60%. For the same molecule, under setting [1], the “myelination of neurons by OL (area of MAG expression)” value is on record as “significantly improved” and the “number of MAG positive cells (OL)” value is “able to increase the number of MAG positive cells”.
